≈ marks a conversion by molar mass, not a printed value.
How the values were obtained:
J774.1 = assay: Antiinflammatory activity in mouse J774.1 cells assessed as inhibition of LPS-induced NO production at 10 microg/ml incubated for 48 hrs by Griess reagent based analysis; format: functional
Hep 3B2 [1] = assay: Antiinflammatory activity in human Hep3B cells assessed as inhibition of IL-6 stimulated CRP mRNA expression at 30 uM preincubated for 60 mins followed by IL-6 stimulation and measured after 20 mins by RT-PCR analysis; format: functional; settings: 1.333 h, time 80 min
Hep 3B2 [2] = assay: Antiinflammatory activity in human Hep3B cells assessed as inhibition of IL-6 stimulated ICAM-1 mRNA expression at 30 uM preincubated for 60 mins followed by IL-6 stimulation and measured after 20 mins by RT-PCR analysis; format: functional; settings: 1.333 h, time 80 min
Hep 3B2 [3] = assay: Antiinflammatory activity in human Hep3B cells assessed as inhibition of IL-6 stimulated IL-1beta mRNA expression at 30 uM preincubated for 60 mins followed by IL-6 stimulation and measured after 20 mins by RT-PCR analysis; format: functional; settings: 1.333 h, time 80 min
Hep 3B2 [4] = assay: Antiinflammatory activity in human Hep3B cells assessed as inhibition of IL-6 stimulated SOCS3 mRNA expression at 30 uM preincubated for 60 mins followed by IL-6 stimulation and measured after 20 mins by RT-PCR analysis; format: functional; settings: 1.333 h, time 80 min
[5] = Antiinflammatory activity in human HAP1 cells assessed as inhibition of LPS-induced NO production at 5 uM; format: functional
[6] = Antiinflammatory activity in human HAP1 cells assessed as inhibition of LPS-induced iNOS expression at 5 uM; format: functional
[7] = Antiinflammatory activity in human HAP1 cells assessed as inhibition of LPS-induced ROS production at 5 uM; format: functional
RAW264.7 [8] = assay: Antiinflammatory activity in mouse RAW264.7 cells assessed as inhibition of LPS-induced NO production for 24 hrs by colorimetric analysis; format: functional, cell-based; settings: RAW264.7, 24 h
[9] = Antiinflammatory activity in human HAP1 cells assessed as inhibition of LPS-induced p38 MAPK activation at 5 uM; format: functional
[10] = Anti-osteoclastogenic activity in human BMDC assessed in inhibition of RANKL mediated osteoclast differentiation; format: functional, cell-based
[11] = Antiinflammatory activity in human HAP1 cells assessed as inhibition of LPS-induced NF-kappaB activation at 5 uM; format: functional
[12] = Antiinflammatory activity in C57BL/6 mouse BMDC cells assessed as inhibition of imiquimod-induced IL-12 expression level at 10 uM and measured after 12 hrs by western blot analysis; format: functional; settings: C57BL/6, BMDC
[13] = Antiinflammatory activity in C57BL/6 mouse BMDC cells assessed as inhibition of imiquimod-induced IL-1beta mRNA expression level at 10 uM and measured after 12 hrs by qpCR analysis; format: functional; settings: C57BL/6, BMDC
[14] = Antiinflammatory activity in C57BL/6 mouse BMDC cells assessed as inhibition of imiquimod-induced IL-6 mRNA expression level at 10 uM and measured after 12 hrs by qpCR analysis; format: functional; settings: C57BL/6, BMDC
[15] = Antiinflammatory activity in C57BL/6 mouse BMDC cells assessed as inhibition of imiquimod-induced IL-6 expression level at 10 uM and measured after 12 hrs by western blot analysis; format: functional; settings: C57BL/6, BMDC
[16] = Antiinflammatory activity in C57BL/6 mouse BMDC cells assessed as inhibition of imiquimod-induced IL-12 mRNA expression level at 10 uM and measured after 12 hrs by qpCR analysis; format: functional; settings: C57BL/6, BMDC
[17] = Antiinflammatory activity in C57BL/6 mouse BMDC cells assessed as inhibition of imiquimod-induced IL-1beta expression level at 10 uM and measured after 12 hrs by western blot analysis; format: functional; settings: C57BL/6, BMDC
Rattus norvegicus [18] = assay: Antiinflammatory activity in rat model of carrageenan-induced hind paw edema assessed as reduction in paw thickness at 100 mg/kg,ip 30mins before carrageenin exposure and measured after 3 hrs; format: functional; parameters: scale not given: the % may be the effect or the level left
Rattus norvegicus [19] = assay: Antiinflammatory activity in rat model of ethyl phenylpropiolate-induced ear edema assessed as reduction in ear thickness administered topically and measured after 1 hr; format: functional
Rattus norvegicus [20] = assay: Antiinflammatory activity in rat model of ethyl phenylpropiolate-induced ear edema assessed as reduction in ear thickness administered topically and measured after 30 mins; format: functional; settings: 0.5 h
Mus musculus = assay: Antiinflammatory activity in ICR mouse model of thioacetamide-induced hepatotoxicity assessed as reduction in TNF-alpha expression at 1 mg/kg,ip pretreated with compound followed by TA induction and measured after 24 hrs by RT-PCR analysis; format: functional; parameters: scale not given: the % may be the effect or the level left
RAW264.7 [21] = assay: Antiinflammatory activity in mouse RAW264.7 cells assessed as inhibition of LPS-induced TNFalpha production; format: functional, cell-based
RAW264.7 [22] = assay: Antiinflammatory activity in mouse RAW264.7 cells assessed as inhibition of LPS-induced NO production; format: functional, cell-based

**Q.** With `COc1cc(O)c([C@H]2C[C@H](CCc3ccc(O)cc3)O[C@@H](c3ccc(O)cc3)[C@H]2O)c(O)c1C(=O)/C=C/c1ccc(O)cc1` as the molecule, how does the inhibition at 10 µg/mL (J774.1) read?
**A.** 37.6%

**Q.** Which inhibition at 30 µM (Hep 3B2 [1]) does the source give for `COc1ccc(/C=C/C(C[C@H](O)CCc2ccc(OC)c(OC)c2)OC)cc1OC` (some centres undefined) here?
**A.** 91%

**Q.** What about the inhibition at 30 µM (Hep 3B2 [2]) of the same molecule?
**A.** 76%

**Q.** And the inhibition at 30 µM (Hep 3B2 [3])?
**A.** 91%

**Q.** And the inhibition at 30 µM (Hep 3B2 [4])?
**A.** 91%

**Q.** Which inhibition at 5 µM [5] does the source give for `Oc1ccc(CC[C@@H](O)CC/C=C/c2ccccc2)cc1O` here?
**A.** 91%

**Q.** What about the inhibition at 5 µM [6] of the same molecule?
**A.** 85%

**Q.** And the inhibition at 5 µM [7]?
**A.** 90%

**Q.** And the IC50 (RAW264.7 [8])?
**A.** 420 nM

**Q.** And the inhibition at 5 µM [9]?
**A.** 44%

**Q.** What about the IC50 [10] of the same molecule?
**A.** 325 nM

**Q.** What about the inhibition at 5 µM [11] of the same molecule?
**A.** 52%

**Q.** With `O=C(/C=C/C=C/c1ccc(O)cc1)CCc1ccc(O)cc1` as the molecule, how does the inhibition at 10 µM [12] read?
**A.** 31%

**Q.** And the inhibition at 10 µM [13]?
**A.** 86%

**Q.** What about the inhibition at 10 µM [14] of the same molecule?
**A.** 61%

**Q.** What about the inhibition at 10 µM [15] of the same molecule?
**A.** 58%

**Q.** And the inhibition at 10 µM [16]?
**A.** 69%

**Q.** What about the inhibition at 10 µM [17] of the same molecule?
**A.** 56%

**Q.** Which Activity (Rattus norvegicus [18]) does the source give for `OC(/C=C/C=C/c1ccccc1)CCc1ccccc1` (centres undefined) here?
**A.** 39%

**Q.** And the ID50 (Rattus norvegicus [19])?
**A.** 312 µg

**Q.** What about the ID50 (Rattus norvegicus [20]) of the same molecule?
**A.** 129 µg

**Q.** And the Activity (Mus musculus)?
**A.** 53%

**Q.** Which results are given for `COc1cc([C@@H](O)[C@@H](O)[C@@H](O)C[C@H](O)CCc2ccc(O)cc2)ccc1O`?
**A.** IC50 (RAW264.7 [21]): > 100000 nM; IC50 (RAW264.7 [22]): 32.6 µg/mL (≈ 86.1 µM)

Reference: ChEMBL document CHEMBL5233262, “Anti-inflammatory activity of naturally occuring diarylheptanoids - A review” (Bioorg Med Chem, 2021)
